# According to patent US20100227313A1, “Methods and Compositions for Determining Altered Susceptibility of HIV-1 to Protease Inhibitor Treatment” (priority 2007, published 2010):
# Test system: HIV-1
# Assay: Resistance test vector (PHENOSENSE) phenotypic susceptibility assay, fold change in IC50, correlated with genotype (Fisher's Exact test, odds ratio)
# Type: cell-based, human immunodeficiency virus type 1
# Conditions: for Odds Ratio: reduced susceptibility (FC>2)
# From the text: See Petropoulos et al., 2000, Antimicrob. Agents Chemother. 44:920-928; U.S. Pat. Nos. 5,837,464 and 6,242,187. PHENOSENSE™ is a phenotypic assay that achieves the benefits of phenotypic testing and overcomes the drawbacks of previous assays.
# PHENOSENSE™ can obtain results with only one round of viral replication, thereby avoiding selection of subpopulations of virus that can occur during preparation of viral stocks required for assays that rely on fully infectious virus.
# A resistance test vector (“RTV”) can then be constructed by incorporating the amplified viral gene sequences into a replication defective viral vector by using any method known in the art of incorporating gene sequences into a vector. In one embodiment, restrictions enzymes and conventional cloning methods are used. See Sambrook et al., 2001, Molecular Cloning: A Laboratory Manual, Cold Spring Harbor Laboratory, 3rd ed., NY; and Ausubel et al., 1989, Current Protocols in Molecular Biology, Greene Publishing Associates and Wiley Interscience, NY. In a preferred embodiment, ApaI and PinAI restriction enzymes are used. Preferably, the replication defective viral vector is the indicator gene viral vector (“IGVV”). In a preferred embodiment, the viral vector contains a means for detecting replication of the RTV. Preferably, the viral vector contains a luciferase expression cassette.
# The assay can be performed by first co-transfecting host cells with RTV DNA and a plasmid that expresses the envelope proteins of another retrovirus, for example, amphotropic murine leukemia virus (MLV). Following transfection, viral particles can be harvested from the cell culture and used to infect fresh target cells in the presence of varying amounts of anti-viral drug(s). The completion of a single round of viral replication in the fresh target cells can be detected by the means for detecting replication contained in the vector. In a preferred embodiment, the completion of a single round of viral replication results in the production of luciferase. By monitoring the amount of, e.g., luciferase activity in the presence of the varying amounts of antiviral drug(s), a resistance curve can be constructed by plotting luciferase activity versus drug concentration. The susceptibility of an HIV, or population of HIV, can be determined by measuring the concentration of antiviral drug at which the luciferase activity detected is half-maximal. This number, the IC50, provides a standard and convenient measure of drug resistance.
# Patient derived segment(s) corresponding to the HIV protease and reverse transcriptase coding regions were amplified by the reverse transcription polymerase chain reaction method (RT PCR) using viral RNA isolated from viral particles present in the plasma or serum of HIV infected individuals as follows. Viral RNA was isolated from the plasma or serum using oligo-dT magnetic beads (Dynal Biotech, Oslo, Norway), followed by washing and elution of viral RNA. The RT PCR protocol was divided into two steps. A retroviral reverse transcriptase (e.g. Moloney MuLV reverse transcriptase (Roche Molecular Systems, Inc., Branchburg, N.J.; Invitrogen, Carlsbad, Calif.), or avian myeloblastosis virus (AMV) reverse transcriptase, (Boehringer Mannheim, Indianapolis, Ind.) was used to copy viral RNA into cDNA. The cDNA was then amplified using a thermostable DNA polymerase (e.g. Taq (Roche Molecular Systems, Inc., Branchburg, N.J.), Tth (Roche Molecular Systems, Inc., Branchburg, N.J.), PRIMEZYME™ (isolated from Thermus brockianus, Biometra, Gottingen, Germany)) or a combination of thermostable polymerases as described for the performance of “long PCR” (Barnes, W.M., 1994, Proc. Natl. Acad. Sci, USA 91, 2216 20) (e.g. Expand High Fidelity PCR System (Taq+Pwo), (Boehringer Mannheim. Indianapolis, Ind.); GENEAMP XL™ PCR kit (Tth+Vent), (Roche Molecular Systems, Inc., Branchburg, N.J.); or […] II®, Clontech, Palo Alto, Calif.)
smiles,measurement,setting,value
"CC(C)CN(C[C@@H](O)[C@H](Cc1ccccc1)NC(=O)O[C@H]1CCOC1)S(=O)(=O)c1ccc(N)cc1 [APV, amprenavir]",correlation of FC in susceptibility with the FC in susceptibility for DRV,"2862 clinical samples, FC relative to wild-type (NL4-3), FIG. 1",tightly correlated
same,Odds Ratio,mutation A22V in PR,4.43
same,Odds Ratio,mutation A71I in PR,1.93
same,Odds Ratio,mutation A71V in PR,1.62
same,Odds Ratio,mutation A431I in gag,21.52
same,Odds Ratio,mutation A431V in gag,3.21
same,Odds Ratio,mutation C67F in PR,9.28
same,Odds Ratio,mutation C95F in PR,4.96
same,Odds Ratio,mutation D60E in PR,1.51
same,Odds Ratio,mutation E34Q in PR,4.54
same,Odds Ratio,mutation E35D in PR,1.27
same,Odds Ratio,mutation E35N in PR,10.13
same,Odds Ratio,mutation E428D in gag,1.94
same,Odds Ratio,mutation E467K in gag,2.39
same,Odds Ratio,mutation E468K in gag,2.98
same,Odds Ratio,mutation F53L in PR,4.91
same,Odds Ratio,mutation F53Y in PR,10.44
same,Odds Ratio,mutation F463S in gag,7.28
same,Odds Ratio,mutation F463V in gag,2.29
same,Odds Ratio,mutation F465L in gag,1.65
same,Odds Ratio,mutation F465S in gag,2.17
same,Odds Ratio,mutation G16A in PR,4.49
same,Odds Ratio,mutation G73A in PR,5.85
same,Odds Ratio,mutation G73C in PR,2.98
same,Odds Ratio,mutation G73S in PR,2.69
same,Odds Ratio,mutation G73T in PR,21.84
same,Odds Ratio,mutation H69R in PR,3.98
same,Odds Ratio,mutation H441Q in gag,3.05
same,Odds Ratio,mutation I13V in PR,1.41
same,Odds Ratio,mutation I47V in PR,98.74
same,Odds Ratio,mutation I54A in PR,7.70
same,Odds Ratio,mutation I54L in PR,8.74
same,Odds Ratio,mutation I54M in PR,32.44
same,Odds Ratio,mutation I54V in PR,2.67
same,Odds Ratio,mutation I62V in PR,1.28
same,Odds Ratio,mutation I66F in PR,4.19
same,Odds Ratio,mutation I66V in PR,4.16
same,Odds Ratio,mutation I72L in PR,3.51
same,Odds Ratio,mutation I72V in PR,1.51
same,Odds Ratio,mutation I84V in PR,58.10
same,Odds Ratio,mutation I85V in PR,3.21
same,Odds Ratio,mutation I437V in gag,3.51
same,Odds Ratio,mutation I479T in gag,1.28
same,Odds Ratio,mutation K20R in PR,2.41
same,Odds Ratio,mutation K20T in PR,1.55
same,Odds Ratio,mutation K20V in PR,4.43
same,Odds Ratio,mutation K43T in PR,7.24
same,Odds Ratio,mutation K55R in PR,4.17
same,Odds Ratio,mutation L10F in PR,3.36
same,Odds Ratio,mutation L10I in PR,1.95
same,Odds Ratio,mutation L10V in PR,1.62
same,Odds Ratio,mutation L19P in PR,6.49
same,Odds Ratio,mutation L23I in PR,4.81
same,Odds Ratio,mutation L24F in PR,11.71
same,Odds Ratio,mutation L33F in PR,12.07
same,Odds Ratio,mutation L63P in PR,1.10
same,Odds Ratio,mutation L89I in PR,2.71
same,Odds Ratio,mutation L89M in PR,1.95
same,Odds Ratio,mutation L90M in PR,1.24
same,Odds Ratio,mutation L449F in gag,1.46
same,Odds Ratio,mutation L449V in gag,9.49
same,Odds Ratio,mutation M36I in PR,1.48
same,Odds Ratio,mutation M36L in PR,1.98
same,Odds Ratio,mutation M46I in PR,2.32
same,Odds Ratio,mutation M46L in PR,2.48
same,Odds Ratio,mutation M423I in gag,2.07
same,Odds Ratio,mutation N37D in PR,1.55
same,Odds Ratio,mutation P79A in PR,18.04
same,Odds Ratio,mutation P79S in PR,9.49
same,Odds Ratio,mutation P453I in gag,4.11
same,Odds Ratio,mutation P453V in gag,9.49
same,Odds Ratio,mutation P459T in gag,2.53
same,Odds Ratio,mutation Q58E in PR,4.49
same,Odds Ratio,mutation Q61N in PR,5.22
same,Odds Ratio,mutation Q92K in PR,7.78
same,Odds Ratio,mutation R452K in gag,2.49
same,Odds Ratio,mutation R452S in gag,2.87
same,Odds Ratio,mutation S451T in gag,1.85
same,Odds Ratio,mutation S462N in gag,2.19
same,Odds Ratio,mutation S488A in gag,1.79
same,Odds Ratio,mutation T4A in PR,9.49
same,Odds Ratio,mutation T4P in PR,4.01
same,Odds Ratio,mutation T4S in PR,8.07
same,Odds Ratio,mutation T12P in PR,2.37
same,Odds Ratio,mutation T74P in PR,27.85
same,Odds Ratio,mutation T91S in PR,11.16
same,Odds Ratio,mutation V11I in PR,23.10
same,Odds Ratio,mutation V32I in PR,62.34
same,Odds Ratio,mutation V82A in PR,1.98
same,Odds Ratio,mutation V82C in PR,9.18
same,Odds Ratio,mutation V82F in PR,11.71
same,Odds Ratio,mutation V82I in PR,2.31
same,Odds Ratio,mutation V82L in PR,6.33
same,Odds Ratio,mutation V82T in PR,3.06
